Laboratory results reported in patent US12637413B2, “Fatty acid amide hydrolase (FAAH) cleavable prodrugs of thyromimetics and combination with peripherally restricted FAAH inhibitors” (Autobahn Therapeutics, Inc., priority 2021, dated 2026).

biological target: T1, recombinant human FAAH (rhFAAH) (Homo sapiens, UniProt O00519); assay: FAAH substrate evaluation (acid metabolite formation); assay type: biochemical; settings: observed rate constant for acid metabolite formation; 0.5 ng/μL rhFAAH, 1 μM test compound, room temperature, 0-60 minutes
T1 construct: purchased Cayman Chemical (Ann Arbor, MI, USA)
T1 sequence (O00519 1-579): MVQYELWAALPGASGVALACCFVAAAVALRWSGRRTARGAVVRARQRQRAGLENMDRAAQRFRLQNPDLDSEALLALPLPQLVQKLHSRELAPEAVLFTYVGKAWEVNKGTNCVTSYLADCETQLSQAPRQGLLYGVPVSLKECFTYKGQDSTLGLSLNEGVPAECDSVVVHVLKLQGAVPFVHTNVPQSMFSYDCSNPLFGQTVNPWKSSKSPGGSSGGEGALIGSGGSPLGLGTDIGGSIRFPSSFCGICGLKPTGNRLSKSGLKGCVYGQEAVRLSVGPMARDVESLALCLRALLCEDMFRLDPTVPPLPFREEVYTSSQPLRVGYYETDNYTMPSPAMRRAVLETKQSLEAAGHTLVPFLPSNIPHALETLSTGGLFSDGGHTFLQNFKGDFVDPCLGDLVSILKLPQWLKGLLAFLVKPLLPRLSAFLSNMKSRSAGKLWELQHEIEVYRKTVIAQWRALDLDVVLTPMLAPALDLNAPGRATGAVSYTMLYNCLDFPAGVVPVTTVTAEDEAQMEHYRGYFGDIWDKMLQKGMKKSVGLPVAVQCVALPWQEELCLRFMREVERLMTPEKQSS
Description: Purified recombinant human FAAH (rhFAAH) was purchased from Cayman Chemical (Ann Arbor, MI, USA). The total volume for each incubation was 400 μL containing a final 0.5 ng/μL rhFAAH, 1 μM test compound, 1.25% ethanol or 1 μM PF-3845 (FAAH inhibitor), and 0.1% bovine serum albumin in Tris-EDTA buffer at pH 8.0). The positive control was LL-341001. The incubation was conducted at the room temperature. At 0, 5, 15, 30 and 60 minutes, an aliquot of 30 μL reaction mixtures was removed and mixed with 300 μL acetonitrile containing 5 ng/mL terfenadine and 10 ng/mL tolbutamide as internal standards to quench the reaction. The resulting mixture was centrifuged at 4000 rpm, 4° C. for 15 minutes, and 100 μL supernatant was ready for LC-MS/MS analysis to measure the formation of acid metabolite.
Acquity Ultra Performance LC system from Waters was used for sample analysis. The chromatography was performed on a reverse phase Kinetex 2.6 μm C18 column, 2.1×30 mm, 100 Å. The mobile phase A comprised of 0.1% formic acid in water and mobile phase B comprised of 0.1% formic acid in acetonitrile with a 2-min run time at the flow rate of 0.8 mL/min for the acid metabolite from positive control or a 1.5 min run time at the flow rate of 0.9 mL/min for the acid metabolite of test compounds. The mass spectrometer (API-5500 and API Q Trap 4000 Applied Biosystems/MDS SCIEX Instruments, Framingham, MA, USA) was operated under ESI positive or negative ion MRM mode.
The formation of acid metabolite was monitored and quantified using one calibration point of 1 μM. The observed rate constant (ke) for the acid metabolite formation was calculated by plotting the metabolite concentration versus time of incubation with the slope being ke and is shown in Table 1.

Structure (SMILES) | ke
CCCN(C)C(=O)COc1cc(Cl)c(Cc2ccc(O)c(C(C)C)c2)c(Cl)c1 [Compound 129, 2-(3,5-dichloro-4-(4-hydroxy-3-isopropylbenzyl)phenoxy)-N-methyl-N-propylacetamide] | B (ke is less than 0.1 and more than 0)
CC(C)c1cc(Cc2c(Cl)cc(OCC(=O)NC3CC3)cc2Cl)ccc1O [Compound 17] | A (ke is more than or equal to 0.1)
CC(C)c1cc(Cc2c(Cl)cc(OCC(=O)NN)cc2Cl)ccc1O [Compound 27] | A (ke is more than or equal to 0.1)
CC(C)c1cc(Cc2c(Cl)cc(OCC(=O)Nc3cccnc3)cc2Cl)ccc1O [Compound 114, 2-(3,5-dichloro-4-(4-hydroxy-3-isopropylbenzyl)phenoxy)-N-(pyridin-3-yl)acetamide] | A (ke is more than or equal to 0.1)
CC(C)c1cc(Cc2c(Cl)cc(OCC(=O)NC3CCC3)cc2Cl)ccc1O [Compound 127, N-cyclobutyl-2-(3,5-dichloro-4-(4-hydroxy-3-isopropylbenzyl)phenoxy)acetamide] | B (ke is less than 0.1 and more than 0)
CC(C)c1cc(Cc2c(Cl)cc(OCC(=O)N(C)CCO)cc2Cl)ccc1O [Compound 123, 2-(3,5-dichloro-4-(4-hydroxy-3-isopropylbenzyl)phenoxy)-N-(2-hydroxyethyl)-N-methylacetamide] | B (ke is less than 0.1 and more than 0)
CONC(=O)COc1cc(Cl)c(Cc2ccc(O)c(C(C)C)c2)c(Cl)c1 [Compound 28] | A (ke is more than or equal to 0.1)
CC(C)c1cc(Cc2c(Cl)cc(OCC(=O)NCC(F)F)cc2Cl)ccc1O [Compound 15] | A (ke is more than or equal to 0.1)
CC(C)c1cc(Cc2c(Cl)cc(OCC(=O)NC[C@H](C)O)cc2Cl)ccc1O [Compound 8] | B (ke is less than 0.1 and more than 0)
CC(C)c1cc(Cc2c(Cl)cc(OCC(=O)N(C)C)c(F)c2Cl)ccc1O [Compound 38] | B (ke is less than 0.1 and more than 0)
CC(C)c1cc(Cc2c(Cl)cc(OCC(=O)N(C)CC(F)F)cc2Cl)ccc1O [Compound 132, 2-(3,5-dichloro-4-(4-hydroxy-3-isopropylbenzyl)phenoxy)-N-(2,2-difluoroethyl)-N-methylacetamide] | B (ke is less than 0.1 and more than 0)
CC(C)c1cc(Cc2c(Cl)cc(OCC(=O)NC(C)(C)C)cc2Cl)ccc1O [Compound 119, N-(tert-butyl)-2-(3,5-dichloro-4-(4-hydroxy-3-isopropylbenzyl)phenoxy)acetamide] | C (ke is 0)
CC(C)c1cc(Cc2c(Cl)cc(OCC(=O)NCC(F)(F)F)cc2Cl)ccc1O [Compound 16] | A (ke is more than or equal to 0.1)
CCCNC(=O)COc1cc(Cl)c(Cc2ccc(O)c(C(C)C)c2)c(Cl)c1 [Compound 3] | A (ke is more than or equal to 0.1)
CCN(C)C(=O)COc1cc(Cl)c(Cc2ccc(O)c(C(C)C)c2)c(Cl)c1 [Compound 130, 2-(3,5-dichloro-4-(4-hydroxy-3-isopropylbenzyl)phenoxy)-N-ethyl-N-methylacetamide] | B (ke is less than 0.1 and more than 0)
CC(C)c1c(O)ccc(Cc2c(Cl)cc(OCC(=O)N(C)C)c(F)c2Cl)c1F [Compound 40] | B (ke is less than 0.1 and more than 0)
CCNC(=O)COc1cc(Cl)c(Cc2ccc(O)c(C(C)C)c2F)c(Cl)c1 [Compound 33] | A (ke is more than or equal to 0.1)
CC(C)c1cc(Cc2c(Cl)cc(OCC(=O)NC(CO)CO)cc2Cl)ccc1O [Compound 11] | B (ke is less than 0.1 and more than 0)

Structure (SMILES) | ke
CC(C)c1cc(Cc2c(Cl)cc(OCC(=O)N(C)CCF)cc2Cl)ccc1O [Compound 125, 2-(3,5-dichloro-4-(4-hydroxy-3-isopropylbenzyl)phenoxy)-N-(2-fluoroethyl)-N-methylacetamide] | B (ke is less than 0.1 and more than 0)
CC(C)c1cc(Cc2c(Cl)cc(OCC(=O)N(C)N(C)C)cc2Cl)ccc1O [Compound 108, 2-(3,5-dichloro-4-(4-hydroxy-3-isopropylbenzyl)phenoxy)-N,N′,N′-trimethylacetohydrazide] | B (ke is less than 0.1 and more than 0)
CC(C)c1cc(Cc2c(Cl)cc(OCC(=O)Nc3cccc(O)c3)cc2Cl)ccc1O [Compound 21] | A (ke is more than or equal to 0.1)
CC(C)c1cc(Cc2c(Cl)cc(OCC(=O)N[C@@H](C)CO)cc2Cl)ccc1O [Compound 10] | A (ke is more than or equal to 0.1)
COc1ccc(NC(=O)COc2cc(Cl)c(Cc3ccc(O)c(C(C)C)c3)c(Cl)c2)cn1 [Compound 101, 2-(3,5-dichloro-4-{[4-hydroxy-3-(propan-2-yl)phenyl]methyl}phenoxy)-N-(6-methoxypyridin-3-yl)acetamide] | A (ke is more than or equal to 0.1)
CC(C)c1cc(Cc2c(Cl)cc(OCC(=O)NCCF)cc2Cl)ccc1O [Compound 14] | A (ke is more than or equal to 0.1)
CC(C)c1cc(Cc2c(Cl)cc(OCC(=O)NCC#N)cc2Cl)ccc1O [Compound 29] | A (ke is more than or equal to 0.1)
CC(C)c1cc(Cc2c(Cl)cc(OCC(=O)NCc3ccccc3)cc2Cl)ccc1O [Compound 22] | A (ke is more than or equal to 0.1)
CC(C)NC(=O)COc1cc(Cl)c(Cc2ccc(O)c(C(C)C)c2)c(Cl)c1 [Compound 126, 2-(3,5-dichloro-4-(4-hydroxy-3-isopropylbenzyl)phenoxy)-N-isopropylacetamide] | A (ke is more than or equal to 0.1)
CC(C)c1cc(Cc2c(Cl)cc(OCC(=O)NO)cc2Cl)ccc1O [Compound 26] | A (ke is more than or equal to 0.1)
CC#CCN(C)C(=O)COc1cc(Cl)c(Cc2ccc(O)c(C(C)C)c2)c(Cl)c1 [Compound 107, N-(but-2-yn-1-yl)-2-(3,5-dichloro-4-(4-hydroxy-3-isopropylbenzyl)phenoxy)-N-methylacetamide] | B (ke is less than 0.1 and more than 0)
CC(C)CNC(=O)COc1cc(Cl)c(Cc2ccc(O)c(C(C)C)c2)c(Cl)c1 [Compound 121, 2-(3,5-dichloro-4-(4-hydroxy-3-isopropylbenzyl)phenoxy)-N-isobutylacetamide] | C (ke is 0)
CC(C)c1cc(Cc2c(Cl)cc(OCC(=O)NCCc3ccccc3)cc2Cl)ccc1O [Compound 23] | B (ke is less than 0.1 and more than 0)
CC(C)c1cc(Cc2c(Cl)cc(OCC(=O)NCCS(C)(=O)=O)cc2Cl)ccc1O [Compound 30] | A (ke is more than or equal to 0.1)
CC(C)c1cc(Cc2c(Cl)cc(OCC(=O)NCCO)cc2Cl)ccc1O [Compound 6] | A (ke is more than or equal to 0.1)
CC(C)c1cc(Cc2c(Cl)cc(OCC(=O)N(C)CC(F)(F)F)cc2Cl)ccc1O [Compound 131, 2-(3,5-dichloro-4-(4-hydroxy-3-isopropylbenzyl)phenoxy)-N-methyl-N-(2,2,2-trifluoroethyl)acetamide] | B (ke is less than 0.1 and more than 0)
COc1ccc(NC(=O)COc2cc(Cl)c(Cc3ccc(O)c(C(C)C)c3)c(Cl)c2)nn1 [Compound 113, 2-(3,5-dichloro-4-(4-hydroxy-3-isopropylbenzyl)phenoxy)-N-(6-methoxypyridazin-3-yl)acetamide] | A (ke is more than or equal to 0.1)
CNC(=O)COc1cc(Cl)c(Cc2ccc(O)c(C(C)C)c2F)c(Cl)c1 [Compound 31] | A (ke is more than or equal to 0.1)
